# Assay results taken from patent publication US20230382889A1 (Volastra Therapeutics, Inc., priority 2022, published 2023).
# Target: hKIF18A (1-374) (Homo sapiens (Human), UniProt Q8NI77)
# Assay: Inhibition of KIF18A microtubule-dependent ATPase activity (ADP-Glo)
# Type: biochemical
# Settings: 4 nM hKIF18A (1-374)
# How it was run: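 Reaction was started with pre-formed microtubules and ATP (0.2 mg/mL and 2.0 mM in the added mix) and run 60 min at 28 °C. ADP was read by ADP-Glo luminescence, and IC50 came from a four-parameter fit of % inhibition.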
# Chain of hKIF18A (1-374) (Q8NI77 1-374): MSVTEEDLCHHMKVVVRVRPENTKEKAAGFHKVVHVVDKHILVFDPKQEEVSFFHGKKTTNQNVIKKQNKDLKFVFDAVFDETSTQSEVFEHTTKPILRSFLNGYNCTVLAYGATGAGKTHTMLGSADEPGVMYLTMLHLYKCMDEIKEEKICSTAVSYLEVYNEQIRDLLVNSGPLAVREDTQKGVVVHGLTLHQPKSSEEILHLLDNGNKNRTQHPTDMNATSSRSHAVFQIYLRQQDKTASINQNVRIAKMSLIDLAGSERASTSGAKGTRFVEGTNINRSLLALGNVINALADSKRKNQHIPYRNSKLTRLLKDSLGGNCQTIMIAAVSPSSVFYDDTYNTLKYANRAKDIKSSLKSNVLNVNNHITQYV
row,Structure (SMILES),IC50
1,"O=S(=O)(CCO)Nc1ccc(-n2cc(-c3ccc(F)c(N4CCCCC4)n3)nn2)c(N2CCC3(CC2)CC3)c1 [Compound 136, N-(4-(4-(5-fluoro-6-(piperidin-1-yl)pyridin-2-yl)-1H-1,2,3-triazol-1-yl)-3-(6-azaspiro[2.5]octan-6-yl)phenyl)-2-hydroxyethane-1-sulfonamide]",6.5 nM
2,"CCS(=O)(=O)Nc1ccc(-n2cc(-c3cncc(N4CCC(F)(F)CC4)n3)nn2)c(N2CCC3(CC2)CC3)c1 [Compound 137, N-(4-(4-(6-(4,4-difluoropiperidin-1-yl)pyrazin-2-yl)-1H-1,2,3-triazol-1-yl)-3-(6-azaspiro[2.5]octan-6-yl)phenyl)ethanesulfonamide]",6.3 nM
3,"CCS(=O)(=O)Nc1ccc(-n2cc(-c3cc(C)cc(C(O)C4CCCC4)n3)nn2)c(N2CCC3(CC2)CC3)c1 (stereo not shown) [Compound 138, N-(4-(4-(6-(cyclopentyl(hydroxy)methyl)-4-methylpyridin-2-yl)-1H-1,2,3-triazol-1-yl)-3-(6-azaspiro[2.5]octan-6-yl)phenyl)ethanesulfonamide]",26 nM
4,"Cc1cc(-c2cn(-c3ccc(NS(=O)(=O)C4CC4)cc3N3CCC4(CC3)CC4)nn2)nc(C(O)C2CCCC2)c1 (stereo not shown) [Compound 139, N-(4-(4-(6-(cyclopentyl(hydroxy)methyl)-4-methylpyridin-2-yl)-1H-1,2,3-triazol-1-yl)-3-(6-azaspiro[2.5]octan-6-yl)phenyl)cyclopropanesulfonamide]",40 nM
5,"O=S(=O)(CCO)Nc1ccc(-c2cn(-c3ccc(F)c(N4CCC(F)(F)CC4)n3)nn2)c(N2CCC3(CC2)CC3)c1 [Compound 140, N-(4-(1-(6-(4,4-difluoropiperidin-1-yl)-5-fluoropyridin-2-yl)-1H-1,2,3-triazol-4-yl)-3-(6-azaspiro[2.5]octan-6-yl)phenyl)-2-hydroxyethane-1-sulfonamide]",18 nM
6,"CC1CCN(c2cc(NS(=O)(=O)CCO)ccc2-c2cn(-c3ccc(F)c(N4CCC(F)(F)CC4)n3)nn2)CC1 [Compound 141, N-(4-(1-(6-(4,4-difluoropiperidin-1-yl)-5-fluoropyridin-2-yl)-1H-1,2,3-triazol-4-yl)-3-(4-methylpiperidin-1-yl)phenyl)-2-hydroxyethane-1-sulfonamide]",17 nM
7,"O=S(=O)(CCO)Nc1ccc(-c2cn(-c3ccc(F)c(N4CC5CC5C4)n3)nn2)c(N2CCC3(CC2)CC3)c1 (stereo not shown) [Compound 142, N-(4-(1-(6-(3-azabicyclo[3.1.0]hexan-3-yl)-5-fluoropyridin-2-yl)-1H-1,2,3-triazol-4-yl)-3-(6-azaspiro[2.5]octan-6-yl)phenyl)-2-hydroxyethane-1-sulfonamide]",26 nM
8,"CC1CCN(c2cc(NS(=O)(=O)CCO)ccc2-n2cc(-c3cncc(N4CCC(F)(F)CC4)n3)nn2)CC1 [Compound 143, N-(4-(4-(6-(4,4-difluoropiperidin-1-yl)pyrazin-2-yl)-1H-1,2,3-triazol-1-yl)-3-(4-methylpiperidin-1-yl)phenyl)-2-hydroxyethane-1-sulfonamide]",5.5 nM
9,"O=S(=O)(CCO)Nc1cc(N2CCC3(CC2)CC3)c(-n2cc(-c3cncc(N4CCC(F)(F)CC4)n3)nn2)cc1F [Compound 144, N-(4-(4-(6-(4,4-difluoropiperidin-1-yl)pyrazin-2-yl)-1H-1,2,3-triazol-1-yl)-2-fluoro-5-(6-azaspiro[2.5]octan-6-yl)phenyl)-2-hydroxyethane-1-sulfonamide]",2.8 nM
10,"CCS(=O)(=O)Nc1ccc(-n2cc(-c3cnc(C)c(N4CCC(F)(F)CC4)n3)nn2)c(N2CCC3(CC2)CC3)c1 [Compound 145, N-(4-(4-(6-(4,4-difluoropiperidin-1-yl)-5-methylpyrazin-2-yl)-1H-1,2,3-triazol-1-yl)-3-(6-azaspiro[2.5]octan-6-yl)phenyl)ethanesulfonamide]",17 nM
11,"CCS(=O)(=O)Nc1ccc(-n2cc(-c3c[n+]([O-])cc(N4CCC(F)(F)CC4)n3)nn2)c(N2CCC3(CC2)CC3)c1 [Compound 146, 3-(4,4-difluoropiperidin-1-yl)-5-(1-(4-(ethylsulfonamido)-2-(6-azaspiro[2.5]octan-6-yl)phenyl)-1H-1,2,3-triazol-4-yl)pyrazine 1-oxide]",4.4 nM
12,"O=S(=O)(CCO)Nc1ccc(-c2cn(-c3ccc(F)c(N4CCCCC4)n3)nn2)c(N2CCC3(CC2)CC3)c1 [Compound 147, N-(4-(1-(5-fluoro-6-(piperidin-1-yl)pyridin-2-yl)-1H-1,2,3-triazol-4-yl)-3-(6-azaspiro[2.5]octan-6-yl)phenyl)-2-hydroxyethane-1-sulfonamide]",22 nM
13,"CCS(=O)(=O)Nc1ccc(-n2cc(-c3ccc(F)c(N4CCC(F)(F)CC4)n3)nn2)c(N2CCC3(CC2)CC3)c1 [Compound 148, N-(4-(4-(6-(4,4-difluoropiperidin-1-yl)-5-fluoropyridin-2-yl)-1H-1,2,3-triazol-1-yl)-3-(6-azaspiro[2.5]octan-6-yl)phenyl)ethanesulfonamide]",31 nM
14,"CS(=O)(=O)Nc1ccc(-n2cc(-c3ccc(F)c(N4CCC(F)(F)CC4)n3)nn2)c(N2CCC3(CC2)CC3)c1 [Compound 149, N-(4-(4-(6-(4,4-difluoropiperidin-1-yl)-5-fluoropyridin-2-yl)-1H-1,2,3-triazol-1-yl)-3-(6-azaspiro[2.5]octan-6-yl)phenyl)methanesulfonamide]",21 nM
15,"O=S(=O)(CCO)Nc1ccc(-n2cc(-c3cncc(OC4CCCC4)n3)nn2)c(N2CCC3(CC2)CC3)c1 [Compound 150, N-(4-(4-(6-(cyclpentyloxy)pyrazin-2-yl)-1H-1,2,3-triazol-1-yl)-3-(6-azaspiro[2.5]octan-6-yl)phenyl)-2-hydroxyethane-1-sulfonamide]",6 nM
16,"Cc1cc(-c2cn(-c3ccc(NS(=O)(=O)CCCO)cc3N3CCC4(CC3)CC4)nn2)nc(N2CCC(F)(F)CC2)n1 [Compound 151, N-(4-(4-(2-(4,4-difluoropiperidin-1-yl)-6-methylpyrimidin-4-yl)-1H-1,2,3-triazol-1-yl)-3-(6-azaspiro[2.5]octan-6-yl)phenyl)-3-hydroxypropane-1-sulfonamide]",27 nM
17,"Cc1cc(-c2cn(-c3ccc(NS(=O)(=O)CCO)cc3N3CCC4(CC3)CC4)nn2)nc(CN2CC(F)(F)C2)n1 [Compound 152, N-(4-(4-(2-((3,3-difluoroazetidin-1-yl)methyl)-6-methylpyrimidin-4-yl)-1H-1,2,3-triazol-1-yl)-3-(6-azaspiro[2.5]octan-6-yl)phenyl)-2-hydroxyethane-1-sulfonamide]",14 nM
18,"O=S(=O)(CCO)Nc1ccc(-n2cc(-c3ccc(F)c(N4CC5CC5C4)n3)nn2)c(N2CCC3(CC2)CC3)c1 (stereo not shown) [Compound 153, N-(4-(4-(6-(3-azabicyclo[3.1.0]hexan-3-yl)-5-fluoropyridin-2-yl)-1H-1,2,3-triazol-1-yl)-3-(6-azaspiro[2.5]octan-6-yl)phenyl)-2-hydroxyethane-1-sulfonamide]",16 nM
19,"O=S(=O)(CCO)Nc1ccc(-n2cc(-c3ccc(F)c(N4CCCCO4)n3)nn2)c(N2CCC3(CC2)CC3)c1 [Compound 154, N-(4-(4-(5-fluoro-6-(1,2-oxazinan-2-yl)pyridin-2-yl)-1H-1,2,3-triazol-1-yl)-3-(6-azaspiro[2.5]octan-6-yl)phenyl)-2-hydroxyethane-1-sulfonamide]",7.1 nM
